According to patent US12357642B2, “Hazardous agent injection system” (Antares Pharma, Inc., priority 2009, dated 2025):
Values joined by “and” are separate entries in the source; they are usually repeats but may differ in a detail not shown here. Equal entries are not always repeated. “Also recorded” adds a separate entry of the source. Where two headings read alike, the source gives them in different places.

Key:
[1] = cited from earlier work; for average mean serum concentration: pediatric patients with juvenile rheumatoid arthritis
[2] = oral, 5 mg/m^2 per week increased to 10 mg/m^2 per week, 46 patients; cited from earlier work
[3] = cited from earlier work
[4] = cited from earlier work; remark: listed apart in the source
[5] = 15 mg, 10 rheumatoid arthritis patients, cited from earlier work
[6] = tested on: patients with active rheumatoid arthritis; conditions: cited from earlier work; for median Disease Activity Score (DAS28) / number of swollen joints / number of tender joints / patients with an ACR20 response: 24 weeks; for patients achieving ACR20: starting dose 15 mg per week; for median Health Assessment Questionnaire (HAQ) score / patients achieving an ACR70 response: week 24; for time to achieve an ACR20 response: same subgroup (n=98); for ACR20 responders: subgroup >1 year between diagnosis and study entry with prior antirheumatic compounds or steroids (n=98)
[7] = tested on: patients with rheumatoid arthritis; conditions: cited from earlier work
[8] = tested on: rheumatoid arthritis patients; conditions: cited from earlier work
[9] = Pharmacokinetics of methotrexate in minipig plasma after subcutaneous injection with autoinjector or needle/syringe
[10] = Female, Auto injector, SC, Dose Level 12.5, individual animals
[11] = Female, Syringe, SC, Dose Level 12.5, individual animals
[12] = Male, Auto injector, SC, Dose Level 12.5, individual animals
[13] = Male, Syringe, SC, Dose Level 12.5, individual animals

Compound: CN(Cc1cnc2nc(N)nc(N)c2n1)c1ccc(C(=O)N[C@@H](CCC(=O)O)C(=O)O)cc1 [Methotrexate, L-(+)—N-[p-[[(2,4-Diamino-6-pteridinyl)methyl]methylamino]-benzoyl]glutamic acid]
- initial average distribution volume ([1]; after intravenous administration): about 0.18 L/kg
- absorption from parenteral routes of injection ([1]; human, in vivo): completely absorbed
- average mean serum concentration ([1]; at about 1 hour): about 0.59 μM
- average mean serum concentration ([1]; at about 3 hours): about 0.29 μM
- effect of higher doses [2]: dose-related efficacy response together with a trend toward increased toxicity
- average DAS28 ([3]; after switch from oral to intramuscular administration at 15 mg per week): 5.2
- average DAS28 ([3]; before switch from oral to intramuscular administration at 15 mg per week): 5.6
- disease improvement compared to placebo ([3]; intramuscular dosage escalated 15 to 45 mg per week, 54 patients who did not achieve DAS28<3.2): no difference in disease improvement
- peak serum concentrations and bioavailability, intramuscular versus subcutaneous ([4]; 12.5 mg to 25 mg per week): similar
- Tmax after subcutaneous versus intramuscular administration ([4]; in 4 out of 5 patients tested): faster
- oral bioavailability ([5]; fasting): 67%
- oral bioavailability ([5]; fed): 63%
- patients classified as ACR20 non-responders ([6]; 16 weeks, of the total tested (52 patients)): 14%
- median Disease Activity Score (DAS28) ([6]; oral): 3.7
- number of swollen joints ([6]; oral): 3
- number of tender joints ([6]; oral): 6
- patients with an ACR20 response ([6]; oral): 70%
- patients achieving ACR20 ([6]; oral, 16 weeks): 77%
- median Health Assessment Questionnaire (HAQ) score ([6]; oral): 0.5
- patients achieving an ACR70 response ([6]; oral): 33%
- time to achieve an ACR20 response ([6]; oral): 6 weeks
- ACR20 responders ([6]; oral): 63%
- rate of adverse events, subcutaneous versus oral ([6]; same dose): not accompanied by a significantly higher rate of adverse events
- further non-responders with positive ACR20 response after dose increase ([6]; subcutaneous dosage increased from 15 mg to 20 mg): 23%
- median Disease Activity Score (DAS28) ([6]; subcutaneous): 3.3
- number of swollen joints ([6]; subcutaneous): 2
- number of tender joints ([6]; subcutaneous): 3.5
- patients with an ACR20 response ([6]; subcutaneous): 78%
- patients achieving ACR20 ([6]; subcutaneous, 16 weeks): 85%
- median Health Assessment Questionnaire (HAQ) score ([6]; subcutaneous): 0.4
- patients achieving an ACR70 response ([6]; subcutaneous): 41%
- time to achieve an ACR20 response ([6]; subcutaneous): 4 weeks
- ACR20 responders ([6]; subcutaneous): 89%
- non-responders with positive ACR20 response after switch ([6]; switched from 15 mg oral to 15 mg subcutaneous): 30%
- patients reporting nausea ([7]; after switching to oral): 48%
- patients reporting nausea ([7]; switched back to intramuscular): 40%
- patients judged to have moderate or marked improvement ([8]; 10 mg to 15 mg intramuscular once a week, 78 rheumatoid arthritis patients): Eighty-two
- patients who deteriorated after switch to oral and improved after switching back to intramuscular ([8]; of the 48 patients who switched to oral): 10 patients
- Methotrexate in samples collected prior to dosing ([9]; Female, autoinjector, Day 8, attributed to carryover of the instrument, LLOQ=0.2 ng/mL): 3.19 ng/mL
- AUC(0-mx) [9, 10]: 2501 ng·mL·h and 3172 ng·mL·h
- AUC(0-t) [9, 10]: 2498 ng·mL·h and 3169 ng·mL·h
- T½ [9, 10]: 3.91 h and 3.95 h
- AUC(0-t) ([9]; Female, Autoinjector, Day 8, individual animals): 3169 ng·h/mL
- AUC(0-t) ([9]; Female, Needle/Syringe, Day 1, individual animals): 2669 ng·h/mL and 1831 ng·h/mL
- AUC(0-mx) [9, 11]: 2675 ng·mL·h and 1832 ng·mL·h
- AUC(0-t) [9, 11]: 2669 ng·mL·h and 1831 ng·mL·h
- Tmax [9, 11]: 0.50 h
- T½ [9, 11]: 4.90 h and 2.53 h
- AUC(0-mx) [9, 12]: 1903 ng·mL·h and 1407 ng·mL·h
- AUC(0-t) [9, 12]: 1901 ng·mL·h and 1405 ng·mL·h
- T½ [9, 12]: 2.00 h and 1.81 h
- AUC(0-t) ([9]; Male, Autoinjector, Day 1, individual animals): 1405 ng·h/mL and 1162 ng·h/mL
- AUC(0-t) ([9]; Male, Needle/Syringe, Day 8, individual animals): 2016 ng·h/mL and 1324 ng·h/mL
- AUC(0-t) [9, 13]: 2464 ng·mL·h and 2016 ng·mL·h
- Tmax [9, 13]: 0.50 h
- difference in exposure / PK parameters between males and females ([9]; SC 12.5 mg, both devices): no marked difference; also recorded: no marked sex-related differences
- exposure with autoinjector compared with needle/syringe ([9]; SC 12.5 mg, male and female minipigs): very similar; also recorded: comparable
- time at which maximal plasma concentrations were generally observed ([9]; both devices, SC 12.5 mg, first collection time point): 0.25 h
- half-life ([9]; both, Gottingen, minipig, plasma, subcutaneous, 12.5 mg, terminal elimination half-life, range over animals and both devices, where it could be estimated): 1.81 to 4.9 h
- AUC(0-t) ([9]; female, Gottingen, minipig, plasma, sc, 12.5 mg, AUC(0-t), Female, Autoinjector, Day 8, individual animals): 2500 ng·h/mL
- AUC(0-t) ([9]; female, Gottingen, minipig, plasma, sc, 12.5 mg, AUC(0-t), Female, Needle/Syringe, Day 1, individual animals): 2380 ng·h/mL
- Tmax ([9]; female, Gottingen, minipig, plasma, sc, […], Tmax, Auto injector, Dose Level 12.5, Median value): 0.25 h
- Tmax ([9]; female, Gottingen, minipig, plasma, sc, […], Tmax, Auto injector, Dose Level 12.5, individual animals): 0.25 h
- Tmax ([9]; female, Gottingen, minipig, plasma, sc, […], Tmax, Syringe, Dose Level 12.5, Median value): 0.25 h
- Tmax ([9]; female, Gottingen, minipig, plasma, sc, […], Tmax, Syringe, Dose Level 12.5, individual animals): 0.25 h
- half-life ([9]; female, Gottingen, minipig, plasma, sc, […], T½, Auto injector, Dose Level 12.5, Mean): 3.71 h
- half-life ([9]; female, Gottingen, minipig, plasma, sc, […], T½, Auto injector, Dose Level 12.5, individual animals): 3.26 h
- half-life ([9]; female, Gottingen, minipig, plasma, sc, […], T½, Syringe, Dose Level 12.5, Mean): 3.39 h
- half-life ([9]; female, Gottingen, minipig, plasma, sc, […], T½, Syringe, Dose Level 12.5, individual animals): 2.74 h
- AUC(0-t) ([9]; male, Gottingen, minipig, plasma, sc, 12.5 mg, AUC(0-t), Male, Autoinjector, Day 1, individual animals): 1900 ng·h/mL
- AUC(0-t) ([9]; male, Gottingen, minipig, plasma, sc, 12.5 mg, AUC(0-t), Male, Needle/Syringe, Day 8, individual animals): 2460 ng·h/mL
- concentration at 24 h ([9]; male, Gottingen, minipig, plasma, sc, […], Concentration of Methotrexate in plasma, Males, Autoinjector, 24 h, individual animals, BQL = below quantitation limit 0.200 ng/mL): 0.696 ng/mL
- Tmax ([9]; male, Gottingen, minipig, plasma, sc, […], Tmax, Auto injector, Dose Level 12.5, Median value): 0.25 h
- Tmax ([9]; male, Gottingen, minipig, plasma, sc, […], Tmax, Auto injector, Dose Level 12.5, individual animals): 0.25 h
- Tmax ([9]; male, Gottingen, minipig, plasma, sc, […], Tmax, Syringe, Dose Level 12.5, Median value): 0.25 h
- Tmax ([9]; male, Gottingen, minipig, plasma, sc, […], Tmax, Syringe, Dose Level 12.5, individual animals): 0.25 h
- half-life ([9]; male, Gottingen, minipig, plasma, sc, […], T½, Auto injector, Dose Level 12.5, Mean): 1.92 h
- half-life ([9]; male, Gottingen, minipig, plasma, sc, […], T½, Auto injector, Dose Level 12.5, individual animals): 1.95 h
- half-life ([9]; male, Gottingen, minipig, plasma, sc, […], T½, Syringe, Dose Level 12.5, individual animals): 1.91 h
